From the supplement of paper PMC12533247
± gives the standard deviation of the averaged measurements.

What was measured:
[1] = tested on: primary dermal fibroblasts; test: % change in live cells vs DMSO control; higher = less cytotoxic; conditions: time (h post treatment): 48
Method: (§1)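 Cytotoxicity in uninfected 2D primary donor keratinocytes (20 h post treatment) and fibroblasts (48 h post treatment), measured with NucSpot live/dead dyes on IncuCyte. Live cells are normalised to the 0.2% DMSO control and shown as % change. Three biological replicates for each of donors 3, 4 and 5.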

[2] = tested on: primary keratinocytes; test: as above; conditions: time (h post treatment): 20
Method: as §1

[3] = tested on: HSV-1 K26-GFP infected primary human skin cells; test: % change of HSV-1 GFP signal vs untreated infected cells; higher = less antiviral inhibition; conditions: cell type: primary dermal fibroblasts, time (h post infection): 48
Method: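 2D primary donor-derived dermal fibroblasts infected with GFP-HSV-1 K26 at MOI 1, treated 1 h later with compound dilutions and read at 48 hpi on IncuCyte. GFP integrated intensity is normalised to mock-infected and untreated infected wells (% change; -100 = full inhibition).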

[4] = tested on: HSV-1 K26-GFP infected 3D skin equivalent; test: % change of tdTomato fibroblast signal relative to infected DMSO control; higher = higher signal (negative = inhibition / toxicity); conditions: time (h post infection): 48
Method: (§2)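 Triplicate dose-response (0.04 to 10 uM) of 11 top compounds in 3D bioprinted skin equivalents (submerged and ALI models) infected with GFP-HSV-1 K26 at MOI 0.1 and fixed at 48 hpi. GFP (virus) and tdTomato (fibroblast viability) signals are normalised to per-plate controls.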

[5] = tested on: HSV-1 K26-GFP infected 3D skin equivalent; test: % activity on HSV-1 GFP signal (0 = infected DMSO control, -100 = uninfected control); higher = higher signal (negative = inhibition / toxicity); conditions: time (h post infection): 48
Method: as §2

CC(C)c1cnn2c(NCc3ccccc3-n3cccn3)nc(OC3CCCNC3)nc12 (stereo unspecified) [LDC4297]
Conditions | % activity on HSV-1 GFP signal [%] | % change in live cells [%] | % change of HSV-1 GFP signal [%] | % change of tdTomato fibroblast signal [%]
[1], 0.082305 µM, donor: 3 | – | -12.3 ± 19 | – | –
[1], 0.082305 µM, donor: 4 | – | -2.33 ± 1.5 | – | –
[1], 0.082305 µM, donor: 5 | – | -0.667 ± 5.5 | – | –
[1], 0.246914 µM, donor: 3 | – | -11.3 ± 15 | – | –
[1], 0.246914 µM, donor: 4 | – | -6.33 ± 3.5 | – | –
[1], 0.246914 µM, donor: 5 | – | -2.33 ± 10 | – | –
[1], 0.740741 µM, donor: 3 | – | -17.3 ± 16 | – | –
[1], 0.740741 µM, donor: 4 | – | -5.33 ± 3.2 | – | –
[1], 0.740741 µM, donor: 5 | – | -7 ± 13 | – | –
[1], 2.22222 µM, donor: 3 | – | -22.3 ± 12 | – | –
[1], 2.22222 µM, donor: 4 | – | -5 ± 5.3 | – | –
[1], 2.22222 µM, donor: 5 | – | -16.3 ± 15 | – | –
[1], 6.66667 µM, donor: 3 | – | -23 ± 15 | – | –
[1], 6.66667 µM, donor: 4 | – | -7.33 ± 9.9 | – | –
[1], 6.66667 µM, donor: 5 | – | -22.7 ± 10 | – | –
[1], 20 µM, donor: 3 | – | -24.3 ± 21 | – | –
[1], 20 µM, donor: 4 | – | -3 ± 6.6 | – | –
[1], 20 µM, donor: 5 | – | -27.3 ± 12 | – | –
[1], 60 µM, donor: 3 | – | -30.3 ± 29 | – | –
[1], 60 µM, donor: 4 | – | 0.667 ± 11 | – | –
[1], 60 µM, donor: 5 | – | -33 ± 2.6 | – | –
[2], 0.082305 µM, donor: 3 | – | -12 ± 8.2 | – | –
[2], 0.082305 µM, donor: 4 | – | 1 ± 7.8 | – | –
[2], 0.082305 µM, donor: 5 | – | -10.3 ± 1.5 | – | –
[2], 0.246914 µM, donor: 3 | – | -41.3 ± 19 | – | –
[2], 0.246914 µM, donor: 4 | – | -17.7 ± 23 | – | –
[2], 0.246914 µM, donor: 5 | – | -17 ± 7 | – | –
[2], 0.740741 µM, donor: 3 | – | -36 ± 8.5 | – | –
[2], 0.740741 µM, donor: 4 | – | -37 ± 15 | – | –
[2], 0.740741 µM, donor: 5 | – | -27.7 ± 5.9 | – | –
[2], 2.22222 µM, donor: 3 | – | -56.3 ± 5.1 | – | –
[2], 2.22222 µM, donor: 4 | – | -70 ± 24 | – | –
[2], 2.22222 µM, donor: 5 | – | -51.7 ± 6.1 | – | –
[2], 6.66667 µM, donor: 3 | – | -75 ± 5.3 | – | –
[2], 6.66667 µM, donor: 4 | – | -98.67 ± 0.58 | – | –
[2], 6.66667 µM, donor: 5 | – | -94.33 ± 0.58 | – | –
[2], 20 µM, donor: 3 | – | -80.3 ± 1.5 | – | –
[2], 20 µM, donor: 4 | – | -97.7 ± 3.2 | – | –
[2], 20 µM, donor: 5 | – | -95 | – | –
[2], 60 µM, donor: 3 | – | -90 ± 1 | – | –
[2], 60 µM, donor: 4 | – | -99.67 ± 0.58 | – | –
[2], 60 µM, donor: 5 | – | -95.3 ± 1.1 | – | –
[3], 0.003 µM, donor: 3 | – | – | 20.9 ± 32 | –
[3], 0.0091 µM, donor: 3 | – | – | 21.8 ± 34 | –
[3], 0.0091 µM, donor: 4 | – | – | 2.39 ± 18 | –
[3], 0.0274 µM, donor: 3 | – | – | 21.6 ± 34 | –
[3], 0.0274 µM, donor: 4 | – | – | 1.27 ± 22 | –
[3], 0.0823 µM, donor: 3 | – | – | 14.2 ± 35 | –
[3], 0.0823 µM, donor: 4 | – | – | -5.21 ± 23 | –
[3], 0.2469 µM, donor: 3 | – | – | -5.39 ± 37 | –
[3], 0.2469 µM, donor: 4 | – | – | -24 ± 20 | –
[3], 0.7407 µM, donor: 3 | – | – | -27.1 ± 25 | –
[3], 0.7407 µM, donor: 4 | – | – | -34.7 ± 12 | –
[3], 2.2222 µM, donor: 3 | – | – | -57.2 ± 13 | –
[3], 2.2222 µM, donor: 4 | – | – | -53.3 ± 1.5 | –
[3], 6.6667 µM, donor: 3 | – | – | -98.3 ± 1.2 | –
[3], 6.6667 µM, donor: 4 | – | – | -92.4 ± 3.9 | –
[3], 20 µM, donor: 3 | – | – | -100.3 ± 0.64 | –
[3], 20 µM, donor: 4 | – | – | -99.916 ± 0.033 | –
[3], 60 µM, donor: 3 | – | – | -100.3 ± 0.73 | –
[3], 60 µM, donor: 4 | – | – | -99.83 ± 0.18 | –
[4], 0.041152 µM, model: ALI | – | – | – | -1.16 ± 2.5
[4], 0.041152 µM, model: submerged | – | – | – | 7.31 ± 3.4
[4], 0.123457 µM, model: ALI | – | – | – | -6.21 ± 6.1
[4], 0.123457 µM, model: submerged | – | – | – | -0.0281 ± 6.4
[4], 0.37037 µM, model: ALI | – | – | – | -7.32 ± 13
[4], 0.37037 µM, model: submerged | – | – | – | -5.4 ± 9.1
[4], 1.111111 µM, model: ALI | – | – | – | -9.38 ± 11
[4], 1.111111 µM, model: submerged | – | – | – | 8.7 ± 11
[4], 3.33333 µM, model: ALI | – | – | – | -3.18 ± 16
[4], 3.33333 µM, model: submerged | – | – | – | 7.79 ± 9.1
[4], 10 µM, model: ALI | – | – | – | 1.92 ± 9.9
[4], 10 µM, model: submerged | – | – | – | -14.8 ± 14
[5], 0.041152 µM, model: ALI | -23.3 ± 22 | – | – | –
[5], 0.041152 µM, model: submerged | -10.7 ± 1.2 | – | – | –
[5], 0.123457 µM, model: ALI | -67.2 ± 25 | – | – | –
[5], 0.123457 µM, model: submerged | -16.1 ± 16 | – | – | –
[5], 0.37037 µM, model: ALI | -88.4 ± 7.3 | – | – | –
[5], 0.37037 µM, model: submerged | -44.7 ± 10 | – | – | –
[5], 1.111111 µM, model: ALI | -99.9 ± 9.8 | – | – | –
[5], 1.111111 µM, model: submerged | -54.4 ± 2.2 | – | – | –
[5], 3.33333 µM, model: ALI | -105 ± 10 | – | – | –
[5], 3.33333 µM, model: submerged | -74.5 ± 4.4 | – | – | –
[5], 10 µM, model: ALI | -99.9 ± 9.1 | – | – | –
[5], 10 µM, model: submerged | -94.8 ± 1 | – | – | –

CC(=O)O[C@H]1C[C@H](O[C@H]2[C@@H](O)C[C@H](O[C@H]3[C@@H](O)C[C@H](O[C@H]4CC[C@@]5(C)[C@H](CC[C@@H]6[C@@H]5C[C@@H](O)[C@]5(C)[C@@H](C7=CC(=O)OC7)CC[C@]65O)C4)O[C@@H]3C)O[C@@H]2C)O[C@H](C)[C@H]1O[C@@H]1O[C@H](CO)[C@@H](O)[C@H](O)[C@H]1O [Lanatoside C]
Conditions | % activity on HSV-1 GFP signal, [5] [%] | % change in live cells, [1] [%] | % change in live cells, [2] [%] | % change of tdTomato fibroblast signal, [4] [%]
0.041152 µM, model: ALI | -34.1 ± 29 | – | – | 2.37 ± 4.6
0.041152 µM, model: submerged | -5.47 ± 10 | – | – | -1.16 ± 12
0.082305 µM, donor: 3 | – | -25.7 ± 14 | -27 ± 14 | –
0.082305 µM, donor: 4 | – | -1.33 ± 4 | -18 ± 5.2 | –
0.082305 µM, donor: 5 | – | -11.3 ± 12 | -3.67 ± 2.1 | –
0.123457 µM, model: ALI | -95.2 ± 11 | – | – | 5.13 ± 5.8
0.123457 µM, model: submerged | -72.7 ± 1.2 | – | – | -17.7 ± 6.7
0.246914 µM, donor: 3 | – | -39.7 ± 12 | -47 ± 2.6 | –
0.246914 µM, donor: 4 | – | -20 ± 6.9 | -39.7 ± 13 | –
0.246914 µM, donor: 5 | – | -32.7 ± 14 | -54.3 ± 2.5 | –
0.37037 µM, model: ALI | -105 ± 6.7 | – | – | -2.13 ± 2.2
0.37037 µM, model: submerged | -99.6 ± 2.2 | – | – | -23.6 ± 11
0.740741 µM, donor: 3 | – | -48.3 ± 11 | -55.3 ± 3.5 | –
0.740741 µM, donor: 4 | – | -28.3 ± 19 | -63 ± 12 | –
0.740741 µM, donor: 5 | – | -31.7 ± 21 | -58.3 ± 3.2 | –
1.111111 µM, model: ALI | -104 ± 4.6 | – | – | 0.581 ± 7.9
1.111111 µM, model: submerged | -103 ± 3.2 | – | – | -37.1 ± 11
2.22222 µM, donor: 3 | – | -47 ± 12 | -53.7 ± 6.1 | –
2.22222 µM, donor: 4 | – | -29.7 ± 17 | -64 ± 12 | –
2.22222 µM, donor: 5 | – | -37.3 ± 19 | -59 ± 5.3 | –
3.33333 µM, model: ALI | -104 ± 3.4 | – | – | -5.14 ± 4.6
3.33333 µM, model: submerged | -104 ± 3.9 | – | – | -52.9 ± 2.2
6.66667 µM, donor: 3 | – | -46 ± 13 | -58 ± 6.2 | –
6.66667 µM, donor: 4 | – | -24.3 ± 12 | -71.3 ± 9.1 | –
6.66667 µM, donor: 5 | – | -42 ± 14 | -56.3 ± 2.5 | –
10 µM, model: ALI | -99.5 ± 6.6 | – | – | -4.98 ± 4.8
10 µM, model: submerged | -107 ± 5.8 | – | – | -56.04 ± 0.53
20 µM, donor: 3 | – | -43.3 ± 17 | -67.7 ± 4.5 | –
20 µM, donor: 4 | – | -22.7 ± 16 | -76.3 ± 9.6 | –
20 µM, donor: 5 | – | -46.7 ± 20 | -57.3 ± 7.1 | –
60 µM, donor: 3 | – | -49.3 ± 19 | -71.3 ± 10 | –
60 µM, donor: 4 | – | -23.3 ± 8.1 | -76.3 ± 9.5 | –
60 µM, donor: 5 | – | -58.7 ± 7.8 | -62.3 ± 6.4 | –
